Assay results taken from ChEMBL document CHEMBL2385028, “Augmentation of GABAergic neurotransmission by novel N-(substituted)-2-[4-(substituted)benzylidene]hydrazinecarbothioamides-a potential anticonvulsant approach” (Eur J Med Chem, 2013).
Calls of active or inactive are those of the source. The calls are words filed in the database; no cut-off is given here.

Columns and labels:
Mus musculus [1] = experiment: Anticonvulsant activity in albino CF-1 mouse assessed as protection against 6 Hz psychomotor seizure at 100 mg/kg, ip after […] by minimal clonic seizure test relative to control
Description: Anticonvulsant activity in albino CF-1 mouse assessed as protection against 6 Hz psychomotor seizure at 100 mg/kg, ip after 0.25 hrs by minimal clonic seizure test relative to control

physchem = conditions: octanol/phosphate buffer
Description: Octanol-phosphate buffer partition coefficient, log P of the compound after 24 hrs by UV spectroscopic analysis

Mus musculus [2] = experiment: Anticonvulsant activity in albino CF-1 mouse assessed as protection against 6 Hz psychomotor seizure at 100 mg/kg, ip after 2 hrs by minimal clonic seizure test relative to control; assay type: functional; conditions: route intraperitoneal
Mus musculus [3] = experiment: Anticonvulsant activity in albino CF-1 mouse at 300 mg/kg, ip assessed as protection against maximal electroshock-induced seizures in half or more animals after 2 hrs; assay type: functional, organism-based; parameters: dose 300 mg/kg
Mus musculus [4] = experiment: Anticonvulsant activity in albino CF-1 mouse assessed as protection against 6 Hz psychomotor seizure at 100 mg/kg, ip after 0.5 hrs by minimal clonic seizure test relative to control; assay type: functional; conditions: route intraperitoneal
Mus musculus [5] = experiment: Anticonvulsant activity in albino CF-1 mouse at 300 mg/kg, ip assessed as protection against maximal electroshock-induced seizures in half or more animals after 0.5 hrs; assay type: functional, organism-based; parameters: dose 300 mg/kg
Mus musculus [6] = experiment: Anticonvulsant activity in albino CF-1 mouse assessed as protection against subcutaneous metrazole-induced seizures in half or more animals at 300 mg/kg, ip after 0.5 hrs; assay type: functional, organism-based; parameters: dose 300 mg/kg
Rattus norvegicus [7] = experiment: Neurotoxicity in albino Sprague-Dawley rat assessed as motor impairment up to 600 mg/kg, ip measured for 4 hrs; assay type: toxicity, organism-based; parameters: dose 600 mg/kg, route intraperitoneal; conditions: in vivo
Mus musculus [8] = experiment: Anticonvulsant activity in albino CF-1 mouse assessed as protection against 6 Hz psychomotor seizure at 100 mg/kg, ip after 1 hr by minimal clonic seizure test relative to control; assay type: functional; conditions: route intraperitoneal
Rattus norvegicus [9] = experiment: Anticonvulsant activity in albino Sprague-Dawley rat assessed as protection against pilocarpine-induced status epilepticus at 600 mg/kg, ip administered prior to pilocarpine-challenge; assay type: functional, organism-based; parameters: dose 600 mg/kg
Mus musculus [10] = experiment: Anticonvulsant activity in ip dosed albino CF-1 mouse assessed as protection against 6 Hz psychomotor seizure after 4 hrs by minimal clonic seizure test; assay type: functional; conditions: albino CF-1, ip
Mus musculus [11] = experiment: Anticonvulsant activity in albino CF-1 mouse assessed as protection against subcutaneous metrazole-induced seizures in half or more animals at 300 mg/kg, ip after 4 hrs; assay type: functional, organism-based; parameters: dose 300 mg/kg
Rattus norvegicus [12] = experiment: Effect on GABA levels in Wistar rat midbrain at 30 mg/kg, ip after 2 hrs measured per 100 mg tissue; assay type: functional; conditions: route intraperitoneal
[13] = Neuroprotective activity in hippocampal slices (unknown origin) assessed as protection against NMDA-induced cell death by propidium-iodide staining-based fluorescence assay; assay type: functional, tissue-based; conditions: Hippocampus
Mus musculus [14] = experiment: Anticonvulsant activity in albino CF-1 mouse at 100 mg/kg, ip assessed as protection against maximal electroshock-induced seizures in half or more animals after 4 hrs relative to control; assay type: functional; conditions: route intraperitoneal
Mus musculus [15] = experiment: Anticonvulsant activity in ip dosed albino CF-1 mouse assessed as protection against maximal electroshock-induced seizures in half or more animals after 4 hrs; assay type: functional; conditions: albino CF-1, ip, read-out: MED
Rattus norvegicus [16] = experiment: Effect on GABA levels in Wistar rat cerebellum at 30 mg/kg, ip after 2 hrs measured per 100 mg tissue; assay type: functional; conditions: route intraperitoneal
[17] = Neuroprotective activity in hippocampal slices (unknown origin) assessed as protection against kainic acid-induced cell death by propidium-iodide staining-based fluorescence assay; assay type: functional, tissue-based; conditions: Hippocampus
Rattus norvegicus [18] = experiment: Effect on GABA levels in Wistar rat olfactory lobe at 30 mg/kg, ip after 2 hrs measured per 100 mg tissue; assay type: functional; conditions: route intraperitoneal
Rattus norvegicus [19] = experiment: Effect on GABA levels in Wistar rat medulla oblongata at 30 mg/kg, ip after 2 hrs measured per 100 mg tissue; assay type: functional; conditions: route intraperitoneal
Mus musculus [20] = experiment: Anticonvulsant activity in ip dosed albino CF-1 mouse assessed as protection against maximal electroshock-induced seizures in half or more animals after 0.5 hrs; assay type: functional; conditions: albino CF-1, ip, read-out: MED
Mus musculus [21] = experiment: Anticonvulsant activity in ip dosed albino CF-1 mouse assessed as protection against maximal electroshock-induced seizures in half or more animals after 2 hrs; assay type: functional; conditions: albino CF-1, ip, read-out: MED
Mus musculus [22] = experiment: Anticonvulsant activity in ip dosed albino CF-1 mouse assessed as protection against subcutaneous metrazole-induced seizures in half or more animals after 0.5 hrs; assay type: functional; conditions: albino CF-1, 0.5 h, read-out: MED
Mus musculus [23] = experiment: Anticonvulsant activity in albino CF-1 mouse at 300 mg/kg, ip assessed as protection against maximal electroshock-induced seizures in half or more animals after 4 hrs; assay type: functional, organism-based; parameters: dose 300 mg/kg
Mus musculus [24] = experiment: Anticonvulsant activity in albino CF-1 mouse assessed as protection against 6 Hz psychomotor seizure at 100 mg/kg, ip after 4 hrs by minimal clonic seizure test; assay type: functional; conditions: route intraperitoneal
[25] = Inhibition of voltage-dependent calcium channel subunit alpha-2/delta gabapentin binding site (unknown origin); parameters: species or system Homo sapiens

With Fc1ccc(Oc2ccc(/C=N/NC(=S)NC3CCCCC3)cc2)cc1 the Activity (Mus musculus [1]) was “inactive”, the logP at 24 h (physchem) was 5.82 and the Activity (Mus musculus [2]) was 50%.
With S=C(N/N=C/c1ccc(Oc2ccc3c(c2)OCO3)cc1)NC1CCCCC1 the logP at 24 h (physchem) was 5.56.
Work on O=[N+]([O-])c1ccc(Oc2ccc(/C=N/NC(=S)Nc3ccccc3)cc2)cc1 yielded a logP at 24 h (physchem) of 4.95.
In the case of S=C(N/N=C/c1ccc(Oc2ccc(Cl)cc2)cc1)NC1CCCCC1, the Activity (Mus musculus [3]) is reported as “inactive”, the Activity (Mus musculus [4]) is reported as 75% and the Activity (Mus musculus [1]) is reported as “inactive”. For the same compound, the Activity (Mus musculus [5]) was “inactive”, the Activity (Mus musculus [6]) was “inactive” and the Activity (Rattus norvegicus [7]) was “Non-toxic”. For the same compound, the Activity (Mus musculus [8]) was 75%, the Activity (Rattus norvegicus [9]) was “inactive” and the ED50 (Mus musculus [10]) was over 100 mg/kg. For the same compound, the Activity (Mus musculus [11]) was “inactive”, the Activity (Rattus norvegicus [12]) was 51.76 mg and the Activity [13] was “inactive”. It also gave an Activity (Mus musculus [14]) of 100%, a logP at 24 h (physchem) of 6.44 and a minimal effective dose (Mus musculus [15]) of 100 mg/kg. For the same compound, the Activity (Rattus norvegicus [16]) was 24.43 mg, the Activity [17] was “inactive” and the Activity (Rattus norvegicus [18]) was 14.81 mg. For the same compound, the Activity (Rattus norvegicus [19]) was 47.24 mg.
For Cc1ccc(Oc2ccc(/C=N/NC(=S)NC3CCCCC3)cc2)cc1, the logP at 24 h (physchem) was 6.17.
In the case of O=C1NC(=O)C(c2ccccc2)(c2ccccc2)N1 [PHENYTOIN], the Activity (Mus musculus [6]) is reported as “inactive”, the Activity (Mus musculus [11]) is reported as “inactive” and the minimal effective dose (Mus musculus [20]) is reported as 30 mg/kg. For the same compound, the minimal effective dose (Mus musculus [15]) was 30 mg/kg and the minimal effective dose (Mus musculus [21]) was 30 mg/kg.
For Cc1cc(Oc2ccc(/C=N/NC(=S)Nc3ccccc3)cc2)ccc1Cl, the Activity (Mus musculus [1]) was “inactive” and the logP at 24 h (physchem) was 6.03.
Compound Cc1ccc(NC(=S)N/N=C/c2ccc(Oc3ccc(F)cc3)cc2)cc1 has a logP at 24 h (physchem) of 5.48.
With CCCC(CCC)C(=O)[O-].[Na+] [VALPROATE SODIUM] the Activity (Mus musculus [3]) was “inactive”, the Activity (Mus musculus [5]) was “inactive” and the minimal effective dose (Mus musculus [22]) was 300 mg/kg. For the same compound, the Activity (Mus musculus [23]) was “inactive” and the Activity (Mus musculus [11]) was “inactive”.
With Cc1ccc(NC(=S)N/N=C/c2ccc(Oc3ccc([N+](=O)[O-])cc3)cc2)cc1 the logP at 24 h (physchem) was 5.23.
In the case of COc1ccc(NC(=S)N/N=C/c2ccc(Oc3ccc(F)cc3)cc2)cc1, the Activity (Mus musculus [1]) is reported as “inactive”, the Activity (Mus musculus [24]) is reported as 25% and the logP at 24 h (physchem) is reported as 5.09.
Work on S=C(N/N=C/c1ccc(Oc2ccc3ccccc3c2)cc1)NC1CCCCC1 yielded a logP at 24 h (physchem) of 6.79.
Work on O=[N+]([O-])c1ccc(Oc2ccc(/C=N/NC(=S)NC3CCCCC3)cc2)cc1 yielded a logP at 24 h (physchem) of 5.51.
With Fc1ccc(Oc2ccc(/C=N/NC(=S)Nc3ccccc3)cc2)cc1 the Activity (Mus musculus [1]) was “inactive” and the logP at 24 h (physchem) was 5.09.
With S=C(N/N=C/c1ccc(Oc2ccc3ccccc3c2)cc1)Nc1ccccc1 the logP at 24 h (physchem) was 6.07.
Work on S=C(N/N=C/c1ccc(Oc2ccc(Cl)cc2)cc1)Nc1ccccc1 yielded a logP at 24 h (physchem) of 5.52.
With Cc1cc(Oc2ccc(/C=N/NC(=S)NC3CCCCC3)cc2)ccc1Cl the Activity (Mus musculus [1]) was “inactive”, the Activity (Mus musculus [8]) was 75% and the logP at 24 h (physchem) was 6.76.
Work on COc1ccc(NC(=S)N/N=C/c2ccc(Oc3ccc(Br)cc3)cc2)cc1 yielded a logP at 24 h (physchem) of 5.84.
With Cc1ccc(NC(=S)N/N=C/c2ccc(Oc3ccccc3)cc2)cc1 the Activity (Mus musculus [4]) was 50%, the Activity (Mus musculus [1]) was “inactive” and the logP at 24 h (physchem) was 5.28.
